Results on 24 compounds are retold here after US5380729A, “12-hetero substituted 6,11-ethano-6,11-dihydrobenzo (b) quinolizinium salts and compositions and method of use thereof” (Sterling Winthrop Inc., priority 1993, dated 1995).

The test system of the first assay is PCP recognition sites. Kind of assay: [3H]TCP Radioreceptor Assay (internal screen). The format is binding, rat (male Sprague-Dawley. Conditions: @ 10 μM; rat whole brain membranes; room temperature, 25 min. On the procedure: [^3 H]TCP Radioreceptor Assay (internal screen)
[^3 H]TCP binding to PCP recognition sites was performed as described by Vignon et al. Brain Research 1983, 280, 194°197. Male Sprague-Dawley rats were sacrificed by decapitation, and whole brains were homogenized in 10 volumes (wt/vol) of cold Tris-HCl buffer (50 mM, pH 7.7) using a Brinkmann Polytron (setting 6, 30 sec). The homogenate was centrifuged at 40,000×g for 10 min at 4° C. The supernatant was decanted, and the homogenization and centrifugation steps were repeated twice as described above. Following this, the pellet was resuspended in Tris-HCl (5 mM, pH 7.7) at a tissue concentration of 0.5°0.75 g/ml, and one ml aliquots were frozen at -70° C. until use. The binding characteristics for PCP recognition sites were not altered by the freezing of membrane suspensions.
On the day of the assay, membrane aliquots were thawed, resuspended in fresh 5 mM Tris-HCl buffer at a tissue concentration of 1 mg/ml, and stored on ice until use. Each assay tube contained 100 μl of [^3 H]TCP at a final concentration of approximately 1 nM, 100 μl of various concentrations of the compounds of interest, 500 μl of the tissue suspension and 300 of buffer to a final assay volume of 1 ml and a final protein concentration of 0.5 mg/tube. Non-specific binding was defined by addition of a final concentration of 100 μM PCP to blank tubes. All tubes were incubated at room temperature for 25 min before termination of the reaction by rapid filtration over Whatman GF/B glass fiber filters that had been presoaked in a solution of 0.5% polyethylenimine for at least 1 hr prior to use. Filters were washed with three 4 ml volumes of cold Tris buffer. Following addition of scintillation cocktail, the amount of bound radioactivity was determined by liquid scintillation spectrometry using a Beckman LS 5000TA liquid scintillation counter with an efficiency for tritium of approximately 55% . Inhibition constants (Ki values) were calculated using the EBDA/LIGAND program (McPherson, J. Pharmacol. Meth. 1985, 14, 213-228), purchased from Elsevier/Biosoft, Inc. Results are reported as Ki values or as a percent (%) inhibition of binding at 10
Take `CC(=O)Oc1ccc(C(C)(C)C)c2c1C1[n+]3ccccc3C2C2(O[C@H](C)[C@@H](C)O2)C1(C)C` (stereo partly drawn) [Example 56, 6,11-ethano-12,12-(2R,3R-butanediolketal)-13,13-dimethyl-7-acetoxy-10-t-butyl-6,11-dihydrobenzo[b]quinolizinium perchlorate]: the “Percent inhibition, [3H]TCP (internal screen)” value came out at 24%.

The same assay, now with this note: rat whole brain membranes; ~1 nM [3H]TCP; room temperature, 25 min.
On to `CCOC1(OCC)CC2c3ccccc3C1c1cccc[n+]12` (stereo not shown) [28(b), 6,11-ethano-12,12-diethoxy-6,11-dihydrobenzo[b]quinolizinium chloride], for which the affinity, expressed as Ki, was 4270 nM. Still for that read-out and setting: to `CCOC1(OCC)C2c3ccccc3C([n+]3ccccc32)C1(C)C.[O-][Cl+3]([O-])([O-])[O-]` (stereo not shown) [1(a), 12,12-diethoxy-13,13-dimethyl-6,11-ethano-6,11-dihydrobenzo[b]quinolizinium perchlorate] belongs 8.4 nM; to `CCOC1(OCC)C2c3cc([N+](=O)[O-])ccc3C([n+]3ccccc32)C1(C)C.[O-][Cl+3]([O-])([O-])[O-]` (stereo not shown) [Example 46, 6,11-ethano-12,12-diethoxy-13,13-dimethyl-9-nitro-6,11-dihydrobenzo[b]quinolizinium perchlorate], 2760 nM; to `CCOC1(OCC)C2c3ccccc3C(C1C)[n+]1ccccc12.[O-][Cl+3]([O-])([O-])[O-]` (stereo not shown) [Example 38, 6,11-ethano-12,12-diethoxy-13-methyl-6,11-dihydrobenzo[b]quinolizinium perchlorate], 33.8 nM.

Consider `CCOC1(OCC)C2c3cccc(C)c3C([n+]3ccccc32)C1(C)C` (stereo not shown) [Example 55, 6,11-ethano-12,12-diethoxy-13,13-dimethyl-7-methyl-6,11-dihydrobenzo[b]quinolizinium chloride], for which affinity was put at a Ki of 455 nM. Against the preceding compound, the Ki is about 13-fold higher. As for `CCOC1(OCC)C2c3cccc(OC)c3C([n+]3ccccc32)C1(C)C` (stereo not shown) [Example 16, 7-methoxy-12,12-diethoxy-13,13-dimethyl-6,11-ethano-6,11-dihydrobenzo[b]quinolizinium hexafluorophosphate], the Ki (in general, the dissociation constant of the complex between target and ligand, obtained from inhibition or displacement) was 1870 nM. On the same count and under the same terms, to `CCN(CC)C1C2c3ccccc3C(C1C)[n+]1ccccc12` (single isomer, unassigned) [Example 61, 6,11-ethano-12-(diethyl) amino-13-methyl-6,11-dihydrobenzo[b]quinolizinium diperchlorate] belongs 5420 nM; to `CCOC1(OCC)C2c3c(O)cccc3C([n+]3ccccc32)C1(C)C.[O-][Cl+3]([O-])([O-])[O-]` (stereo not shown) [15(b), 10-hydroxy-12,12-diethoxy-13,13-dimethyl-6,11-ethano-6,11-dihydrobenzo[b]quinolizinium perchlorate], 7.87 nM.

`CCOC1(OCC)C2c3ccccc3C([n+]3ccccc32)C1(C)C` [Example 5, 12,12-diethoxy-13,13-dimethyl-6,11-ethano-6,11-dihydrobenzo[b]quinolizinium (S)-(+)-CH3 C(Ph)(OH)CO2^-] gave a Ki of 5.25 nM. Still for that read-out and setting: to `CCOC1(OCC)C2c3cc(C(F)(F)F)ccc3C([n+]3ccccc32)C1(C)C` (stereo not shown) [23(b), 6,11-ethano-12,12-diethoxy-13,13-dimethyl-9-trifluoromethyl-6,11-dihydrobenzo[b]quinolizinium chloride] belongs 407 nM; to `CCOC1(OCC)C2c3c(F)cc(F)cc3C([n+]3ccccc32)C1(C)C` (stereo not shown) [24(b), 6,11-ethano-12,12-diethoxy-13,13-dimethyl-8,10-difluoro-6,11-dihydrobenzo-[b]quinolizinium chloride], 272 nM; to `C[C@@H]1C[C@@H](C)OC2(O1)C1c3ccccc3C([n+]3ccccc31)C2(C)C` (single isomer, unassigned) [Example 10(b)], 614 nM. The same measure, in the same setting: to `CCOC1(OCC)C2c3cc(Cl)ccc3C([n+]3ccccc32)C1(C)C.[O-][Cl+3]([O-])([O-])[O-]` (stereo not shown) [Example 26, 6,11-ethano-12,12-diethoxy-13,13-dimethyl-9-chloro-6,11-dihydrobenzo[b]quinolizinium perchlorate] belongs 12.4 nM; to `CCOC1(OCC)C2c3cc(OC)ccc3C([n+]3ccccc32)C1(C)C` (single isomer, unassigned) [20(c), 9-methoxy-12,12-diethoxy-13,13-dimethyl-6,11-ethano-6,11-dihydrobenzo[b]quinolizinium chloride], 7.05 nM; to `COC1(O[Si](C)(C)C)C2c3ccccc3C([n+]3ccccc32)C1(C)C.[O-][Cl+3]([O-])([O-])[O-]` (stereo not shown) [Example 40, 6,11-ethano-12-methoxy-12-trimethylsilyloxy-13,13-dimethyl-6,11-dihydrobenzo[b]quinolizinium perchlorate], 1600 nM. In turn, `CCOC1(OCC)C2c3ccccc3C([n+]3c(C)cccc32)C1(C)C` (stereo not shown) [27(b), 6,11-ethano-12,12-diethoxy-13,13-dimethyl-4-methyl-6,11-dihydrobenzo[b]quinolizinium chloride] gave a Ki of 314 nM. `CCOC1(OCC)C2c3ccccc3C(C1Cl)[n+]1ccccc12` (single isomer, unassigned) [Example 42, 6,11-ethano-12,12-diethoxy-13-chloroquinolizinium perchlorate] returned a Ki of 319 nM. On the same count and under the same terms, to `CCOC1(OCC)C2c3c(C)cccc3C([n+]3ccccc32)C1(C)C.[O-][Cl+3]([O-])([O-])[O-]` (stereo not shown) [Example 47, 6,11-ethano-12,12-diethoxy-13,13-dimethyl-10-methyl-6,11-dihydrobenzo[b]quinolizinium perchlorate] belongs 45.5 nM. Still for that read-out and setting: to “12,12-Diethylamino-13-phenyl-6,11-ethano-6,11-dihydrobenzo[b]quinolizinium perchlorate [63(j)]” belongs 14400 nM.

For the compound `CCOC1(OCC)C2c3c(Br)cccc3C([n+]3ccccc32)C1(C)C` (stereo not shown) [Example 30, 6,11-ethano-12,12-diethoxy-13,13-dimethyl-10-bromo-6,11-dihydrobenzo[b]quinolizinium chloride], the Ki was found to be 107 nM. On to `CCOC1(OCC)C2c3ccccc3C([n+]3ccccc32)C1(CC)CC` (stereo not shown) [17(c), 12,12-diethoxy-13,13-diethyl-6,11-ethano-6,11-dihydrobenzo[b]quinoliziniumperchlorate], for which the Ki was found to be 10.6 nM.

In turn, `CCOC1(OCC)C2c3c(OC(C)=O)cccc3C([n+]3ccccc32)C1(C)C.[O-][Cl+3]([O-])([O-])[O-]` (stereo not shown) [15(a), 10-acetoxy-12,12-diethoxy-13,13-dimethyl-6,11-ethano-6,11-dihydrobenzo[b]quinolizinium perchlorate] came in with a Ki of 26.4 nM. Compared with the last compound, the Ki is about 2.5-fold higher.

A further assay relates to NMDA-induced neurotoxicity in cultured cortical neurons. Description: Antagonism of NMDA-induced neurotoxicity in cultured neurons (LDH release). It is filed as cell-based, mouse (Swiss-Webster). Conditions: 500 μM NMDA, 30 minutes; LDH activity at 24 hours; mouse cortical neurons. On the procedure: Antagonism of NMDA-induced Neurotoxicityin Cultured Neurons
Preparation of Cultured Cortical Neurons
Pregnant, Swiss-Webster mice were obtained from Taconic Farms (Germantown, New York) and sacrificed 16 days post conception. Fetuses were removed and placed in a sterile dish containing Hank's balanced salt solution (HBSS), pH 7.4. Brain cortices were dissected, meninges were removed, the tissue was minced and placed into a solution of HBSS containing 0.25% (w/v) trypsin at 37° C. for 15 minutes. Tissue was then triturated with a sterile pasteur pipet, diluted with minimal essential media (Gibco 330-1430), pH 7.4, supplemented with 10% horse serum, 10% fetal calf serum, 2 mM 1-glutamine, 21 mM d-glucose, 2.2 g/L sodium bicarbonate, 1000 u/ml penicillin, and 1,000 μg/ml streptomycin. Cells were plated onto Falcon primaria 96 well plates at a final density of 50,000 cells/well and incubated at 37° C. in the presence of 5% (v/v) carbon dioxide. After 5 days, plating media was replaced with maintenance media containing minimal essential media (Gibco 330- 1430), pH 7.4, supplemented with 10% horse serum, 10% 1-glutamine, 21 mM d-glucose, 2.2 g/l sodium bicarbonate,1,000 U/ml penicillin, 1,000 μg/ml streptomycin, and 10 μM cytosine arabinoside. On days 7 and 10, media was replaced with maintenance media as above lacking the cytosine arabinoside. Experiments were conducted on day 13.
Neuroprotection Assessment
Day 13 cultured cortical neurons were washed twice with minimal essential media, pH 7.4 and then exposed for 30 minutes to 500 μM N-methyl-D-aspartic acid (NMDA) with or without varying concentrations of test agents. Dizocilpine (MK-801) at a final concentration of 10 μM MK-801 was routinely included as a positive control. MK-801 and test agents were prepared in minimal essential media supplemented with 21 mM d-glucose and 2.2 g/L sodium bicarbonate (MEM). After 30 minutes, media was replaced with MEM alone. Exposure of neurons to test agents was limited to the NMDA treatment period. Twenty-four hours after removal of NMDA, an aliquot of media from each well was removed for assessment of cell injury by determining lactate dehydrogenase (LDH) activity by. the method of Wroblewski and LaDue Proc. Soc. Exp. Biol. Med. 1955, 90, 210-213. The results are expressed as an IC50 (in nM) value (concentration causing 50% inhibition) for the antagonism of NMDA--inducedneurotoxicity.
On to `CCOC1(OCC)C2c3cc([N+](=O)[O-])ccc3C([n+]3ccccc32)C1(C)C.[O-][Cl+3]([O-])([O-])[O-]` (stereo not shown) [Example 46, 6,11-ethano-12,12-diethoxy-13,13-dimethyl-9-nitro-6,11-dihydrobenzo[b]quinolizinium perchlorate], for which the IC50 (as a rule, the concentration that gives 50% inhibition) amounted to 15300 nM. Still for that read-out and setting: to `CCOC1(OCC)C2c3ccccc3C(C1C)[n+]1ccccc12.[O-][Cl+3]([O-])([O-])[O-]` (stereo not shown) [Example 38, 6,11-ethano-12,12-diethoxy-13-methyl-6,11-dihydrobenzo[b]quinolizinium perchlorate] belongs 1160 nM.

The assay is the same for the next values; noted with them: Cortical neurone; 500 μM NMDA, 30 minutes; LDH activity at 24 hours; mouse cortical neurons.
Consider `CCOC1(OCC)CC2c3ccccc3C1c1cccc[n+]12` (stereo not shown) [28(b), 6,11-ethano-12,12-diethoxy-6,11-dihydrobenzo[b]quinolizinium chloride], for which inhibition was half-maximal at 95500 nM (IC50).

`CCOC1(OCC)C2c3ccccc3C([n+]3ccccc32)C1(C)C.[O-][Cl+3]([O-])([O-])[O-]` (stereo not shown) [1(a), 12,12-diethoxy-13,13-dimethyl-6,11-ethano-6,11-dihydrobenzo[b]quinolizinium perchlorate]: the IC50 was found to be 17 nM. On to `CCOC1(OCC)C2c3ccccc3C(C1C)[n+]1ccccc12` (single isomer, unassigned) [Example 37, 6,11-ethano-12,12-diethoxy-13-methyl-6,11-dihydrobenzo[b]quinolizinium], for which inhibition was half-maximal at 810 nM (IC50).
